Results taken from patent US12303491B2, “Econazole nitrate medical patch and methods of use thereof” (Temple University-Of The Commonwealth System of Higher …, priority 2017, dated 2025).
≈ marks a conversion by molar mass, not a printed value.

Key:
[1] = cited from earlier work
[2] = Drug saturation solubility study; conditions: PVP 1% and 5% solution compared to phosphoric buffer pH 7.4 and pH 5 (P<0.05)
[3] = Crystallization in patch films (visual observation); assay type: physicochemical
Protocol: The drug (EN) and the PEs, thiourea (TU) and propylene glycol (PG), were dissolved or uniformly dispersed in the pressure sensitive adhesive(s) (PSAs), and spread onto a release liner. The drug (EN) and the nail PE (TU) were weighed out in a glass bottle and dissolved in solvent (methanol) and vortexed for 1 min. Then PG was weighed and added as solubilizer for EN and plasticizer for the patch. The solution was vortexed with the methanol as solvent until a single phase was obtained. Afterwards, the hydrophobic plasticizers triethyl citrate and hydrophilic polymer polyvinylpyrrolidone were weighed and mixed with the solvents prior to addition of PG. Finally the polymer was weighed out into the glass bottle and vortexed for 5 min to form a homogenous mixture. The formulae for the patch include but are not limited to those in Table 3. The bottles were then placed on the bottle roller and mixed overnight at medium speed to complete the mixing and remove the air bubbles generated during vortexing the polymer. […]
The percentage of TU was maintained at a concentration off 1%. Three concentrations of EN (1% w/w, 2.5% w/w and 5% w/w) and three concentrations of PG (5% w/w, 10% w/w and 20% w/w) were evaluated. […] Then according to the EN and PG concentration determined from the DURO-TAK® 87-4098 films, fabricated patches using acrylate grades DURO-TAK® 87-2287, DURO-TAK® 87-4287 and DURO-TAK® 87-9301. […]

[4] = cited from earlier work; remark: listed apart in the source
[5] = Nail penetration study in PVP solution; conditions: 1% and 5% PVP group compared to phosphoric buffer pH 7.4 and pH 5 groups
[6] = cited from earlier work; remark: listed apart in the source
[7] = In-vitro skin permeation, Franz diffusion cells; assay type: in vitro ADME, human
From the text: The patch was studied for the transdermal permeation of EN using human cadaver skin and Franz diffusion cells (FIG. 2A). Three films each with an area of 4 cm^2 square patch were cut from patch film. The skin was cut into 1.5 cm by 1.5 cm pieces, and mount on the Franz diffusion cells with orifice diameter of 9 mm (FIG. 2B). The release liner was removed from the films and the matrix surface was placed in contact with the skin. The area of 0.64 cm^2 of the skin was in contact with the receiving medium. The receiver compartment was sampled at 1, 2, 4, 8, 12 and 24 hr by withdrawing 0.5 mL of the receiving medium and replacing with equal volume of pH 7.4 PBS. At the end of 24 hr, epidermis and dermis were heat separated and extracted for EN content.

dermatomycoses = conditions: topical, dermatological studies, treatment period 2 to 6 weeks; cited from earlier work
[8] = Drug release rate from acrylate patch; assay type: physicochemical
Protocol: The percentage of TU was maintained at a concentration off 1%. Three concentrations of EN (1% w/w, 2.5% w/w and 5% w/w) and three concentrations of PG (5% w/w, 10% w/w and 20% w/w) were evaluated. The acrylate films were first fabricated with DURO-TAK® 87-4098. The total weight of the mixture was 5 g. Methanol was the only solvent used for dissolving the components in the acrylates films. The purpose of this was to screen out what concentration of EN and PG could be added into the polymer to form an acceptable patch. Then according to the EN and PG concentration determined from the DURO-TAK® 87-4098 films, fabricated patches using acrylate grades DURO-TAK® 87-2287, DURO-TAK® 87-4287 and DURO-TAK® 87-9301.
Drug release from hydrophobic polymers is slow. The adhesives polymer used are hydrophobic polymers. To increase polymer chain mobility, the addition of a hydrophobic plasticizer was considered. Triacetin (TAC) and triethyl citrate (TEC) were the selected plasticizers. The adhesive polymer acrylate had been selected as the best polymer system. TAC or TEC was added into the acrylate polymer at three different levels. These were, 5%, 10% and 20% (based on the 5 g matrix weight).

[9] = assay type: in vitro ADME, human
Protocol: The cadaver toenails were cut into 7 mm×7 mm (49 mm^2) pieces. The nail pieces were then hydrated at 100% RH overnight prior to start of experiment. The hydrated nail pieces were placed in the neoprene nail adapters (FIG. 2A) with orifice diameter of 5 mm. The receiver compartment was filled with pH 7.4 PBS (3 mL) containing 0.1% w/v gentamicin sulfate and the assembly was maintained at 32±1° C. throughout the duration of the experiment. Each sample was tested in triplicate. The patch in absence of thiourea was used as the control. The patches with diameter of 5 mm were cut. The release liner was removed and the drug matrix was placed in contact with the nail. The new patch was applied every 24 hrs for 14 days. Throughout the duration of the study, the Franz cells were dosed with a new patch daily. On the days 2, 4, 6, 8, 10, 12 and 14, 0.5 mL of the sample was withdrawn from the receiver compartment and replaced with equal volume of new receiving medium.

Listeria monocytogenes = conditions: cited from earlier work
[10] = tested on: Staphylococcus epidermidis; conditions: cited from earlier work
[11] = tested on: Corynebacterium diphtheria; conditions: cited from earlier work
Streptococcus bovis = conditions: cited from earlier work
Streptococcus faecalis = conditions: cited from earlier work
Streptococcus faecium = conditions: cited from earlier work
Bacillus subtilis = conditions: cited from earlier work
Staphylococcus aureus = conditions: cited from earlier work
Streptococcus pyogenes = conditions: cited from earlier work
plasma protein = conditions: cited from earlier work

SMILES | aqueous solubility [1] | MIC (Listeria monocytogenes) [µg/mL] | MIC [10] [µg/mL] | MIC [11] [µg/mL] | MIC (Streptococcus bovis) [µg/mL] | MIC (Streptococcus faecalis) [µg/mL] | MIC (Streptococcus faecium) [µg/mL] | MIC (Bacillus subtilis) [µg/mL] | MIC (Staphylococcus aureus) [µg/mL] | MIC (Streptococcus pyogenes) [µg/mL] | also measured
Cc1cc(C2CCCCC2)n(O)c(=O)c1 [CPO, ciclopirox] | 1.4 mg/mL (≈ 6750 µM) | – | – | – | – | – | – | – | – | – | –
Clc1ccc(COC(Cn2ccnc2)c2ccc(Cl)cc2Cl)cc1 (stereo not shown) [econazole nitrate, Econazole nitrate] | 1.5 micrograms/ml | – | – | – | – | – | – | – | – | – | saturation solubility [2]: significantly higher; crystallization in patch ([3]; acrylate PSA patch, drug load 5% w/w, no PG added): slight crystallization; crystallization in patch ([3]; acrylate patch screening, EN concentration raised to 5% w/w): crystallization occurred; Water Solubility ([4]; at 19° C.): <0.1 g/100 mL at 19 °C; Log P [4]: 5.5; pKa [4]: 6.77; amount penetrated into the nail plate [5]: significantly higher; topically applied drug remaining on the skin surface ([6]; as a cream, patients): about 90%; drug amount in the receiver compartment ([7]; human cadaver skin, after 24 hours): no drug amount appeared; drug amount in the dermis ([7]; patch with thiourea vs without, 24 hr): no significant difference; drug amount in the epidermis ([7]; patch with thiourea, 24 hr): 5.63 ug/cm^2; drug amount in the epidermis ([7]; patch without thiourea, 24 hr): 1.73 ug/cm^2; patients cured (dermatomycoses): about 90%; drug release rate ([8]; acrylate patch in absence of PVP): 22.347 μg/cm^2/hour; drug release rate ([8]; acrylate patch with 1% PVP): 26.713 μg/cm^2/hour; drug release rate ([8]; acrylate patch with 5% PVP): 27.853 μg/cm^2/hour; drug amount in nail plate [9]: significantly increase
Clc1ccc(COC(Cn2ccnc2)c2ccc(Cl)cc2Cl)c(Cl)c1 (stereo not shown) [miconazole base, miconazole] | – | 1.56 (≈ 3.75 µM) | 6.25 (≈ 15 µM) | 0.39 (≈ 0.937 µM) | 3.12 (≈ 7.5 µM) | 25 (≈ 60.1 µM) | 25 (≈ 60.1 µM) | 3.12 (≈ 7.5 µM) | 6.25 (≈ 15 µM) | 6.25 (≈ 15 µM) | –
Clc1ccc(COC(Cn2ccnc2)c2ccc(Cl)cc2Cl)cc1 (stereo not shown) [econazole] | – | 1.56 (≈ 4.09 µM) | 12.5 (≈ 32.7 µM) | 0.78 (≈ 2.04 µM) | 6.25 (≈ 16.4 µM) | 25 (≈ 65.5 µM) | 25 (≈ 65.5 µM) | 12.5 (≈ 32.7 µM) | 12.5 (≈ 32.7 µM) | 12.5 (≈ 32.7 µM) | unchanged drug in urine ([6]; human, in vivo): No unchanged econazole is detected; dose recovered in urine and feces ([6]; vaginal cream, over 96 hours): less than 3%; plasma protein binding (plasma protein): greater than 98%
